In paper PMC12387182, “Polyphenolic Profiling and Evaluation of Antioxidant, Antidiabetic, Anti-Alzheimer, and Antiglaucoma Activities of Allium kharputense and Anchusa azurea var. azurea” (Life, 2025):

Assays:
[1] = cited from earlier work
ABTS scavenging activity = assay: ABTS scavenging activity
Experimental: In addition, the ABTS^•^+ scavenging capacity of A. kharputense and A. azurea was determined. The mixture comprised 2 mM ABTS in water combined with 2.45 mM potassium persulfate (K2S2O8) to form ABTS^•+. This mixture was then kept for six hours at room temperature and in the dark. The study was performed by first diluting the solution in phosphate buffer (pH 7.4) to achieve an absorption of 0.800 ± 0.05 at 734 nm in a 1 mL cuvette. The solution was then equilibrated at 30 °C, the temperature at which all subsequent tests were conducted. Subsequently, 3 mL of each of A. kharputense and A. azurea in ethanol at various concentrations (10–30 µg/mL) were combined with 1 mL each of ABTS^•+ solution. Following a 30 min period of agitation, the absorbances were measured at 734 nm, and the radical scavenging activities were calculated for each concentration.

DPPH scavenging activity = assay: DPPH scavenging activity
Experimental: DPPH solution was prepared one day before the experimental measurement. The solution bottle was kept in the dark and stirred at 4 °C for 16 h. Aluminum foil was used to cover the bottle. Shortly after the preparation of 0.1 mM DPPH solution in ethanol, 0.5 mL of this solution was added to 2 mL A. kharputense and A. azurea extracts in ethanol at various concentrations (10–30 µg/mL). A. kharputense and A. azurea samples were vortexed and incubated at 30 °C for 30 min in the dark. The DPPH^• absorbances were measured and evaluated at 517 nm in comparison with the blank sample [40].

α-glycosidase = α-glycosidase (Saccharomyces cerevisiae, UniProt P53341); conditions: cited from earlier work
Chain of α-glycosidase (P53341 whole entry): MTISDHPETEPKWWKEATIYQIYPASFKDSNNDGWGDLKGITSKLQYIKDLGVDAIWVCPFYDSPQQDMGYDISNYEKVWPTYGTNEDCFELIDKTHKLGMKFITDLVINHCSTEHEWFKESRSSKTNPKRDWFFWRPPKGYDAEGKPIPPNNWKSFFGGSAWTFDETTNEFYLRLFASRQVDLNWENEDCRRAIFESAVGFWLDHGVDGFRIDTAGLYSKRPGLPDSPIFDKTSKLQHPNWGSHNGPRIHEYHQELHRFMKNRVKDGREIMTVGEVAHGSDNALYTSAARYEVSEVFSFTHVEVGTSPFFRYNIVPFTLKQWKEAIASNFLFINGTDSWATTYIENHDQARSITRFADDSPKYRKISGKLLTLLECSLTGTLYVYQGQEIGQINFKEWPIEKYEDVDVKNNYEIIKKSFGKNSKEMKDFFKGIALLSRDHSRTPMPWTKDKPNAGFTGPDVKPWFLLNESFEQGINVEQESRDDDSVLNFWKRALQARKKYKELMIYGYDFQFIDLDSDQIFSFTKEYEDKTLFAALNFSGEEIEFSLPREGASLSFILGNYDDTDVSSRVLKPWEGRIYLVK

[2] = Fe^3+-TPTZ reducing (FRAP); conditions: absorbance at 30 µg/mL
Experimental: The ferric reducing capacity (FRAP) of plasma is measured using the technique outlined. At low pH, a strong blue hue with a maximum absorption at 593 nm is produced when a ferric–tripyridyltriazine (Fe^3+-TPTZ) complex is reduced to the Fe^2+ form.

Fe^3+ reducing = conditions: absorbance at 30 µg/mL
[3] = Cu^2+ reducing ability (CUPRAC); conditions: absorbance at 30 µg/mL
Experimental: Equal volumes of 1.0 mM CuCl2, 7.5 mM neocuprine solutions, and 1.0 M ammonium acetate buffer (pH 6.5) were prepared according to the technique of Apak et al.. The plants were mixed with three different concentrations of the samples (15–45 µg/mL in ethanol), and the total reaction volume was adjusted to 2 mL. After the tubes were kept at room temperature for 30 min, the absorbance values at 450 nm were read spectrophotometrically.

| SMILES | DPPH radical scavenging activity (IC50) [1] | ABTS^•+ Scavenging IC50 (ABTS scavenging activity) | DPPH^• Scavenging IC50 (DPPH scavenging activity) | α-glycosidase inhibitory effect compared with Acarbose (α-glycosidase) | Fe^3+-TPTZ Reducing A (593 nm) [2] | Fe^3+ Reducing A (700 nm) (Fe^3+ reducing) | Cu^2+ Reducing A (450 nm) [3] |
| --- | --- | --- | --- | --- | --- | --- | --- |
| O=C1O[C@H]([C@@H](O)CO)C(O)=C1O [Ascorbic acid] | 3.6 µg/mL | 28.79 ± 0.120 µg/mL | 18.61 ± 0.120 µg/mL | – | – | – | – |
| O=c1c(O[C@@H]2O[C@H](CO)[C@@H](O)[C@H](O)[C@H]2O)c(-c2ccc(O)c(O)c2)oc2cc(O)cc(O)c12 [isoquercitrin] | – | – | – | stronger than that of Acarbose | – | – | – |
| COc1ccc(O)c(C(C)(C)C)c1 [BHA, butylated hydroxyanisole] | – | 38.59 ± 0.130 µg/mL | 23.87 ± 0.097 µg/mL | – | 1.75 ± 0.040 | 1.76 ± 0.026 | 1.58 ± 0.016 |
| Cc1cc(C(C)(C)C)c(O)c(C(C)(C)C)c1 [BHT, butylated hydroxytoluene] | – | 32.00 ± 0.100 µg/mL | 13.34 ± 0.011 µg/mL | – | 1.50 ± 0.080 | 2.08 ± 0.062 | 2.15 ± 0.068 |
| Cc1c(C)c2c(c(C)c1O)CC[C@@](C)(CCC[C@H](C)CCC[C@H](C)CCCC(C)C)O2 [α-Tocopherol, α-tocopherol] | – | 25.12 ± 0.070 µg/mL | 30.29 ± 0.056 µg/mL | – | – | 0.94 ± 0.059 | 1.47 ± 0.044 |
| Cc1c(C)c2c(c(C)c1O)CCC(C)(C(=O)O)O2 (centres unmarked) [Trolox] | – | 53.26 ± 0.070 µg/mL | 20.98 ± 0.016 µg/mL | – | 0.84 ± 0.010 | 1.45 ± 0.005 | 1.04 ± 0.102 |
